The compounds below were run against Cytochrome P450 3A4 (Homo sapiens, UniProt P08684) (assay: Inhibition of human CYP3A4).
Assay type: ADME

Cytochrome P450 3A4, sequence (P08684 whole entry): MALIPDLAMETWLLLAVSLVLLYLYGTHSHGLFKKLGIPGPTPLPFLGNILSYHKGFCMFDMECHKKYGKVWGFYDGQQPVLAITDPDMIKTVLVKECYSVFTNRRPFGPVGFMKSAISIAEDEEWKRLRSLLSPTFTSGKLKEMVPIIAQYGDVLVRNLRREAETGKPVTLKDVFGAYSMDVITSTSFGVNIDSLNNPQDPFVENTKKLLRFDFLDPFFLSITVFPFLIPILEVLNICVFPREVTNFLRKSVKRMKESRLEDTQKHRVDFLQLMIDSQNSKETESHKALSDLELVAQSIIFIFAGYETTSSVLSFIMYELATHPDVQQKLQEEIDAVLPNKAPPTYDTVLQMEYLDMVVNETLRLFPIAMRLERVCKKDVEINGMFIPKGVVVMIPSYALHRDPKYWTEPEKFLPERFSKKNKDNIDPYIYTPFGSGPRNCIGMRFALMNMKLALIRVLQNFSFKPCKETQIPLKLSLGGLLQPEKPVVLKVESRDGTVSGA

| Structure (SMILES) | IC50 [nM] |
| --- | --- |
| O=C(/C=C/c1ccc(O)cc1)OC[C@H]1O[C@@H](Oc2c(-c3ccc(O)cc3)oc3cc(O)cc(O)c3c2=O)[C@H](O)[C@@H](O)[C@@H]1O [TILIROSIDE] | 700 |
| CC(C)CC(=O)c1c(O)cc(O)cc1O[C@@H]1O[C@H](CO)[C@@H](O)[C@H](O)[C@H]1O | 120000 |
| O=C(/C=C\c1ccc(O)cc1)OC[C@H]1O[C@@H](Oc2c(-c3ccc(O)cc3)oc3cc(O)cc(O)c3c2=O)[C@H](O)[C@@H](O)[C@@H]1O | 700 |

— ChEMBL document CHEMBL1148945, “Isolation of cytochrome P450 inhibitors from strawberry fruit, Fragaria ananassa” (J Nat Prod, 2004)
